Measured values taken from paper PMC11828871, “Structural basis of anticancer drug recognition and amino acid transport by LAT1” (Nature Communications, 2025).
Values belong to the molecule of their own block, whether it stands above or below them.

How the values were obtained:
[1] = target: T1, LAT1 (Homo sapiens, UniProt Q01650); assay: cryo-EM structure ([…] Å, occluded); cis inhibition and counterflow assays in oocytes
T1 construct: gene SLC7A5; LAT1–CD98hc in lipid nanodiscs with Fab170; with CD98hc (4F2hc; SLC3A2)

[2] = target: T1, LAT1; assay: cryo-EM structure in nanodiscs ([…] Å); IC50 from L-[…]Leu uptake in Xenopus oocytes; assay type: cell-based
[3] = target: T2, LAT1 (Homo sapiens, UniProt Q01650, F400V); assay: inhibition of L-[…]Leu uptake in Xenopus oocytes; assay type: cell-based
T2 construct: gene SLC7A5; F400V LAT1 expressed in Xenopus oocytes; with CD98hc (4F2hc; SLC3A2)

[4] = target: T3, LAT1 (Homo sapiens, UniProt Q01650, F252W); assay: inhibition of L-[…]Leu uptake in Xenopus oocytes; assay type: cell-based
T3 construct: gene SLC7A5; F252W LAT1 co-expressed with CD98hc in Xenopus oocytes; with CD98hc (4F2hc; SLC3A2)

[5] = target: T1, LAT1; assay: cryo-EM structure (outward-open, nanodisc)

T1 sequence (Q01650 whole entry): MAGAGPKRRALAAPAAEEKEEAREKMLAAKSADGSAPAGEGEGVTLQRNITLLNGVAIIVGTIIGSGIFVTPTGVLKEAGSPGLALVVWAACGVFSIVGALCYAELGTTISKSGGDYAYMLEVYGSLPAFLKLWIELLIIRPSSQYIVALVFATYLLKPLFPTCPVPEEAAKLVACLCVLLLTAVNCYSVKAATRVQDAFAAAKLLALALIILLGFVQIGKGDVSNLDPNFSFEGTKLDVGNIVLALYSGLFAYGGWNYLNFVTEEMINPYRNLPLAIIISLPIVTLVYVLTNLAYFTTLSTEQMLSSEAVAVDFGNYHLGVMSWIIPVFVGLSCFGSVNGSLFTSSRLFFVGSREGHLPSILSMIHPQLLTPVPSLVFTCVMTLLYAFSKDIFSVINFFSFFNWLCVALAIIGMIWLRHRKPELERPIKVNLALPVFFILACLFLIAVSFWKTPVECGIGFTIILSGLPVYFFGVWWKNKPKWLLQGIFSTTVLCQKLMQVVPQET
T1 sequence (P08195 103-630 partner): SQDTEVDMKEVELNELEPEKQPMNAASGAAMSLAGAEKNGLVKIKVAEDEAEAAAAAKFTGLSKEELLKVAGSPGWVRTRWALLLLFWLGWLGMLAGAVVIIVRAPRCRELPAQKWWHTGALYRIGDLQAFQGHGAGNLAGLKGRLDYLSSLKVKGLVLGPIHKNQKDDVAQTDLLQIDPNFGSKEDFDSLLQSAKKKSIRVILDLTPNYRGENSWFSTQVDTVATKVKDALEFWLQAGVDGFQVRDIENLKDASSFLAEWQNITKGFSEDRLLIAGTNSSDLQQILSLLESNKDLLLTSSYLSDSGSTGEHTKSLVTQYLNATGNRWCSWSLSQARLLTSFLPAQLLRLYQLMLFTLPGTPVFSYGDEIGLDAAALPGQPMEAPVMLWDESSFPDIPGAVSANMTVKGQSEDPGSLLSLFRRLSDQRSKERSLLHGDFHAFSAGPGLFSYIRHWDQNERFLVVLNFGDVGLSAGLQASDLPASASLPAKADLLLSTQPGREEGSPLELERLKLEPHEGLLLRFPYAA
T2 sequence (Q01650 whole entry F400V): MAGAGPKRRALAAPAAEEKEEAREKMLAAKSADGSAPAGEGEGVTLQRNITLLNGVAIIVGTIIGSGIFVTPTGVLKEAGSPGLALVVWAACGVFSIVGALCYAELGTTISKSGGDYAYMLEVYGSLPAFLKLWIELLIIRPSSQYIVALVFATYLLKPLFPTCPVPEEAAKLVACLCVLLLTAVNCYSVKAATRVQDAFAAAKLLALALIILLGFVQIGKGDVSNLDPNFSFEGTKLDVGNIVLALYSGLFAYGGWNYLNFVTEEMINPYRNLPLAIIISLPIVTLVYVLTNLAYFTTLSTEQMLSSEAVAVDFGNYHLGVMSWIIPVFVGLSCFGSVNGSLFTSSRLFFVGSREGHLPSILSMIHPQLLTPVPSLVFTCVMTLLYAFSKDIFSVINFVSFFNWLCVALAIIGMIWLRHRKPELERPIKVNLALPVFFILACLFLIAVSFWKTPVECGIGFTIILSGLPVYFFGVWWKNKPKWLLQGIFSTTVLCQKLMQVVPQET
T2 sequence (P08195 103-630 partner): as the sequence (P08195 103-630 partner) above
T3 sequence (Q01650 whole entry F252W): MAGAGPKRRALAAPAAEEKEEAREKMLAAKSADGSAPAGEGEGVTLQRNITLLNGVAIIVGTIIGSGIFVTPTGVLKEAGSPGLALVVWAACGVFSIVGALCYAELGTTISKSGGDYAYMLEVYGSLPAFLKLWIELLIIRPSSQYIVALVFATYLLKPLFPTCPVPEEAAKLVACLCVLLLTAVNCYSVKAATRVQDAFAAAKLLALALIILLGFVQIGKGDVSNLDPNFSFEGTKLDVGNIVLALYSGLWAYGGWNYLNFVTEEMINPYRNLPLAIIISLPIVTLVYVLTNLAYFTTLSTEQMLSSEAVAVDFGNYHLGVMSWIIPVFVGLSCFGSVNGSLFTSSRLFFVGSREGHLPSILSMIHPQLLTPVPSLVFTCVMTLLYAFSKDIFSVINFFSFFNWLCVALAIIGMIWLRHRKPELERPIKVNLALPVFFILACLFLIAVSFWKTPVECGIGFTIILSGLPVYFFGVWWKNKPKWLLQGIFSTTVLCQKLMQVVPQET
T3 sequence (P08195 103-630 partner): as the sequence (P08195 103-630 partner) above

SMILES: NC1(C(=O)O)CC2CCC1C2 (centres unmarked) [BCH, 2-aminobicyclo[2.2.1]heptane-2-carboxylic acid]
cryo-EM structure (3.7 Å, occluded); cis inhibition and counterflow assays in oo [1]: BCH is bound in the canonical substrate-binding pocket, with its carboxy and amino moieties recognized

IC50 [2]: 542 nM | IC50 [4]: 36 nM
SMILES: Nc1cc(COc2c(Cl)cc(C[C@H](N)C(=O)O)cc2Cl)c2oc(-c3ccccc3)nc2c1 [JPH203, (S)-2-amino-3-(4-((5-amino-2-phenylbenzo [d]oxazol-7-yl)methoxy)-3,5-dichlorophenyl) propanoic acid]
inhibition of L-[14C]Leu uptake in Xenopus oocytes [3]: the variant F400V retained its activity and was sensitive to JPH203

SMILES: N[C@@H](Cc1ccc(N(CCCl)CCCl)cc1)C(=O)O [melphalan]
cryo-EM structure (outward-open, nanodisc) [5]: bis-(2-chloroethyl)amino side group is placed in the space surrounded by TM3, TM6a and TM10
